# Measurements taken from patent publication US8609724B2, “Method of treating cancer using dichloroacetate” (priority 2005, dated 2013).
# Entries after “also recorded” stand apart in the source; their conditions may differ.
# Legend:
# [1] = system: cancer cells; assay: Free cytosolic calcium (fluo-3, confocal); assay type: cell-based, human; settings: treated vs control cells
# [2] = system: NFAT; assay: NFAT and Kv1.5 confocal imaging; assay type: cell-based, human; settings: A549 cells
# Experimental: Imaging was performed using a Zeiss LSM 510 confocal microscope as described. Apoptag apoptosis detection kit (TUNEL stain, Serologicals, Norcross, Ga.) and the proliferating cell nuclear antigen (PCNA) antibody (DAKO, Carpinteria, Calif.) were used as per manufacturer's instructions on both formaldehyde fixed cells and paraffin-embedded tissue sections after antigen retrieval. Nuclear staining was made using 4′,6′-diamidino-2-phenylindole dihydrochloride (DAPI, 300 nM; Molecular Probes) in fixed tissue or cells as previously described Apoalert Annexin V kit (Clontech, Palo Alto, Calif.), cytochrome c antibody (Pharmingen, San Diego, Calif.), Apoptosis inducing factor (Santa Cruz Calif. USA) NFAT and Kv1.5 (Sigma) and mitotracker red (500 nM, Molecular Probes) were used as described by the company instructions. Mitochondrial membrane potential (ΔΨm) was studied in live cancer cultured cells, using tetramethylrhodamine methyl-ester perchlorate (TMRM) (20 nmol/L) for 30 minutes (37° C.) and Hoechst (1.0 umol/L) nuclear staining for 10 minutes (Molecular Probes, Canada).
structure (smiles),measurement,setting,value
OO [H2O2],free cytosolic calcium concentration,[1],decreases the intracellular Ca++ levels; also recorded: Control cells had more calcium than both DCA and H2O2 treated cells
same,Kv1.5 expression (confocal immunostaining),[2],increased Kv1.5 expression
same,NFAT activation (nuclear localization),[2],blocked the activation of NFAT
